Here are results for 23 molecules from patent US20260078130A1, “NAMPT MODULATORS, PREPARATIONS, AND USES THEREOF” (SIRONAX LTD., priority 2022, published 2026).

Experiment [1] addresses T1, human enzyme NAMPT (full length) (Homo sapiens, UniProt P43490).
T1 construct: human enzyme NAMPT (full length)
Briefly: NMN fluorescence biochemical assay (stimulation of NMN synthesis by NAMPT). The note with it: for EC50: concentration giving half-maximal activation, read-out: Enzymatic EC50; for Enzymatic Emax: fold change of maximal activation compared to DMSO. Put shortly: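 Full-length human NAMPT (100 nM) was preincubated 15 min at 37 °C with compound in 50 mM Tris-HCl pH 7.5, 10 mM MgCl2, 2 mM DTT, then reacted 1 h at 37 °C with 50 μM NAM, 100 μM PRPP, 4 mM ATP (stated solution concentrations). NMN was derivatised with acetophenone/KOH then formic acid and read at Ex/Em 382/445 nm; EC50 and Emax (fold over DMSO) reported.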

The test system of experiment [2] is endogenous NAMPT in U2OS cells. Briefly: Cellular NAD+ modulation assay (NAD/NADH-Glo, U2OS cells). In kind it is cell-based. The note with it: Homo sapiens; for maximal fold induction: read-out: Cellular Emax. Put shortly: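 NAD/NADH-Glo luminescence quantified NAD+ after acid treatment (60 °C, 15 min) and neutralization of DTAB lysates. Beforehand, U2OS cells seeded 16 h earlier received compound concentration series for 24 h at 37 °C. Values given as half-maximal activation concentration (EC50) and maximal fold change versus DMSO (Emax).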

The mark [3] stands for this setting: NMN synthesis by purified human NAMPT (100 nM).
[4] abbreviates: 24 hours incubation with compound.
Setting [5] is: NMN fluorescence assay, purified human NAMPT 100 nM.
[6] abbreviates: 24 hours incubation, cellular NAD+.

Like-named read-outs stand apart in the source and are kept apart here.

T1 sequence (P43490 whole entry): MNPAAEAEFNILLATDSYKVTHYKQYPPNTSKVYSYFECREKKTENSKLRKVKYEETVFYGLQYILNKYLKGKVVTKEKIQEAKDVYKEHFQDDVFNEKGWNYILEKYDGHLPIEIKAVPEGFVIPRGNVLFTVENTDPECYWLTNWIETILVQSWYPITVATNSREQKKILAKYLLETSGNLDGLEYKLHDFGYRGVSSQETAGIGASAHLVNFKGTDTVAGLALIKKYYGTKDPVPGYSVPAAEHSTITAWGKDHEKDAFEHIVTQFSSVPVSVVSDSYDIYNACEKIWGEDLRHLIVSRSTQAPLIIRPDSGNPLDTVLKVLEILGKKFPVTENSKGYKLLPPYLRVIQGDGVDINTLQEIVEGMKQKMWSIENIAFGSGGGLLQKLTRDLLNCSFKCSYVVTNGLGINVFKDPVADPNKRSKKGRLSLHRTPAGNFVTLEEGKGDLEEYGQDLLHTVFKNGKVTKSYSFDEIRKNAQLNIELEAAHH

For orientation: EC50 means the midpoint of the concentration-response curve. Take `COc1ccc2c(c1)CN(Cc1ccc3[nH]c(=O)oc3c1)C2=O` [Compound 49, 6-((5-methoxy-1-oxoisoindolin-2-yl)methyl)benzo[d]oxazol-2(3H)-one]: the EC50 in experiment [1] (setting [3]) was at least 5000 nM. In experiment [1], the “Enzymatic Emax” value was “B (3≥B>2)”. In experiment [2] (setting [4]), the EC50 lay within 5000 to 50000 nM and the maximal fold induction was above 1.5.

For the molecule `COc1ccc(CN2C(=O)c3ccccc3C2Cc2c(C#N)ccnc2C#N)cc1` (centres unmarked) [Compound 590, 3-((2-(4-methoxybenzyl)-3-oxoisoindolin-1-yl)methyl)pyridine-2,4-dicarbonitrile], the EC50 in experiment [1] (setting [5]) was 500 to 5000 nM. Moreover, the “Enzymatic Emax” value in experiment [1] is given as “B (3≥B>2)”. Also, in experiment [2] (setting [6]), the EC50 fell in the range of 500 to 5000 nM and the maximal fold induction was 1.2 to 1.5.

Regarding `Cn1ncc(Cl)c1CC1c2ccccc2C(=O)N1CC1CC(C(N)=O)C1` (centres unmarked) [Compound 562, 3-((1-((4-chloro-1-methyl-1H-pyrazol-5-yl)methyl)-3-oxoisoindolin-2-yl)methyl)cyclobutane-1-carboxamide], the EC50 in experiment [1] (setting [5]) is 500 to 5000 nM. In addition, in experiment [1], the “Enzymatic Emax” value is listed as “B (3≥B>2)”. Moreover, in experiment [2] (setting [6]), the EC50 is below 500 nM and the maximal fold induction was in the range of 1.2 to 1.5.

Turning to `Cn1nnc(Cl)c1CC1c2ccccc2C(=O)N1CC1CC2(CNC(=O)O2)C1` (centres unmarked) [Compound 489, 2-((1-((4-chloro-1-methyl-1H-1,2,3-triazol-5-yl)methyl)-3-oxoisoindolin-2-yl)methyl)-5-oxa-7-azaspiro[3.4]octan-6-one], in experiment [1] (setting [5]), the EC50 was in the range of 500 to 5000 nM. Besides, the “Enzymatic Emax” value in experiment [1] was “B (3≥B>2)”. In experiment [2] (setting [6]), the EC50 was 500 to 5000 nM and the maximal fold induction was above 1.5.

Regarding `O=c1[nH]c2ccc(CN3Cc4ccccc4S3(=O)=O)cc2o1` [Compound 9, 6-((1,1-dioxidobenzo[d]isothiazol-2(3H)-yl)methyl)benzo[d]oxazol-2(3H)-one], the EC50 in experiment [1] (setting [3]) and in experiment [2] (setting [4]) was 500 to 5000 nM in each case. The “Enzymatic Emax” value in experiment [1] is reported as “B (3≥B>2)”. Further, the maximal fold induction in experiment [2] (setting [4]) was above 1.5.

As for `O=c1[nH]c2ccc(Cn3ccc4ccccc4c3=O)cc2o1` [Compound 4, 6-((1-oxoisoquinolin-2(1H)-yl)methyl)benzo[d]oxazol-2(3H)-one], in experiment [1] (setting [3]), the EC50 was at least 5000 nM. For the same molecule, the “Enzymatic Emax” value in experiment [1] is given as “B (3≥B>2)”. Also, in experiment [2] (setting [4]), the EC50 was in the range of 5000 to 50000 nM and the maximal fold induction was in the range of 1.2 to 1.5.

Consider `Cn1ncc(C#N)c1CC1c2ccccc2C(=O)N1Cc1ccc2[nH]nnc2c1` (centres unmarked) [Compound 317, 5-((2-((1H-benzo[d][1,2,3]triazol-5-yl)methyl)-3-oxoisoindolin-1-yl)methyl)-1-methyl-1H-pyrazole-4-carbonitrile], for which the EC50 in experiment [1] (setting [3]) was below 500 nM. Also, the “Enzymatic Emax” value in experiment [1] is on record as “C (2≥C)”. Moreover, in experiment [2] (setting [4]), the EC50 was below 500 nM and the maximal fold induction was 1.2 to 1.5.

Regarding `Cn1nc(Cl)c(CC2c3ccccc3C(=O)N2Cc2ccc3[nH]nnc3c2)n1` (centres unmarked) [Compound 335, 2-((1H-benzo[d][1,2,3]triazol-5-yl)methyl)-3-((5-chloro-2-methyl-2H-1,2,3-triazol-4-yl)methyl)isoindolin-1-one], the EC50 in experiment [1] (setting [5]) was in the range of 500 to 5000 nM. The “Enzymatic Emax” value in experiment [1] is “A (A>3)”. Besides, in experiment [2] (setting [6]), the EC50 is below 500 nM and the maximal fold induction was above 1.5.

Turning to `CN(C)c1nn(C)c(CC2c3ccccc3C(=O)N2Cc2ccc3[nH]nnc3c2)c1Cl` (centres unmarked) [Compound 420, 2-((1H-benzo[d][1,2,3]triazol-5-yl)methyl)-3-((4-chloro-3-(dimethylamino)-1-methyl-1H-pyrazol-5-yl)methyl)isoindolin-1-one], the EC50 in experiment [1] (setting [5]) and in experiment [2] (setting [6]) was below 500 nM each time. Further, the “Enzymatic Emax” value in experiment [1] is reported as “B (3≥B>2)”. Further, the maximal fold induction in experiment [2] (setting [6]) is above 1.5.

As for `O=C1c2ccccc2C(Cc2ncccc2F)N1Cc1ccc2[nH]c(=O)oc2c1` (centres unmarked) [Compound 214, 6-((1-((3-fluoropyridin-2-yl)methyl)-3-oxoisoindolin-2-yl)methyl)benzo[d]oxazol-2(3H)-one], the EC50 in experiment [1] (setting [3]) is 500 to 5000 nM; in experiment [2] (setting [4]), below 500 nM. For the same molecule, the “Enzymatic Emax” value in experiment [1] was “A (A>3)”. In addition, the maximal fold induction in experiment [2] (setting [4]) is above 1.5.

Consider `N#Cc1ccc(Br)c(CC2c3ccccc3C(=O)N2Cc2ccc3[nH]c(=O)oc3c2)n1` (centres unmarked) [Compound 221, 5-bromo-6-((3-oxo-2-((2-oxo-2,3-dihydrobenzo[d]oxazol-6-yl)methyl)isoindolin-1-yl)methyl)picolinonitrile], for which the EC50 in experiment [1] (setting [3]) is below 500 nM. Besides, in experiment [1], the “Enzymatic Emax” value was “A (A>3)”. Further, in experiment [2] (setting [4]), the EC50 is below 500 nM and the maximal fold induction was above 1.5.

Consider `O=c1c2ccccc2ccn1Cc1ccc(O)cc1` [Compound 1, 2-(4-hydroxybenzyl)isoquinolin-1(2H)-one], for which the EC50 in experiment [1] (setting [3]) was at least 5000 nM. In addition, in experiment [1], the “Enzymatic Emax” value was “A (A>3)”. Moreover, in experiment [2] (setting [4]), the EC50 is 500 to 5000 nM and the maximal fold induction was above 1.5.

For the molecule `COc1cc(CN2C(=O)c3ccccc3C2Cc2c(Cl)cnn2C)on1` (centres unmarked) [Compound 593, 3-((4-chloro-1-methyl-1H-pyrazol-5-yl)methyl)-2-((3-methoxyisoxazol-5-yl)methyl)isoindolin-1-one], the EC50 in experiment [1] (setting [5]) was at least 5000 nM. Moreover, in experiment [1], the “Enzymatic Emax” value is recorded as “B (3≥B>2)”. Further, in experiment [2] (setting [6]), the 50% effective concentration (EC50) fell in the range of 500 to 5000 nM and the maximal fold induction fell in the range of 1.2 to 1.5.

With `Cc1cccnc1CC1c2ccccc2C(=O)N1Cc1ccc2[nH]c(=O)oc2c1` (centres unmarked) [Compound 176, 6-((1-((3-methylpyridin-2-yl)methyl)-3-oxoisoindolin-2-yl)methyl)benzo[d]oxazol-2(3H)-one], in experiment [1] (setting [3]), the EC50 was below 500 nM. The “Enzymatic Emax” value in experiment [1] is given as “A (A>3)”. Further, in experiment [2] (setting [4]), the EC50 was 500 to 5000 nM and the maximal fold induction is above 1.5.

Regarding `O=C1c2ccccc2C(Cc2ncccc2Br)N1Cc1ccc(=O)[nH]c1` (centres unmarked) [Compound 322, 3-((3-bromopyridin-2-yl)methyl)-2-((6-oxo-1,6-dihydropyridin-3-yl)methyl)isoindolin-1-one], the EC50 in experiment [1] (setting [5]) was in the range of 500 to 5000 nM. In experiment [1], the “Enzymatic Emax” value is given as “A (A>3)”. Moreover, in experiment [2] (setting [6]), the EC50 was in the range of 500 to 5000 nM and the maximal fold induction was above 1.5.

As to `Cc1scnc1CC1c2ccccc2C(=O)N1Cc1ccc2[nH]c(=O)oc2c1` (centres unmarked) [Compound 217, 6-((1-((5-methylthiazol-4-yl)methyl)-3-oxoisoindolin-2-yl)methyl)benzo[d]oxazol-2(3H)-one], the EC50 in experiment [1] (setting [3]) and in experiment [2] (setting [4]) was 500 to 5000 nM in each case. For the same molecule, in experiment [1], the “Enzymatic Emax” value is recorded as “A (A>3)”. For the same molecule, the maximal fold induction in experiment [2] (setting [4]) is above 1.5.

`Cn1nc(C2CC2)c(Cl)c1CC1c2ccccc2C(=O)N1Cc1ccc2[nH]nnc2c1` (centres unmarked) [Compound 399, 2-((1H-benzo[d][1,2,3]triazol-5-yl)methyl)-3-((4-chloro-3-cyclopropyl-1-methyl-1H-pyrazol-5-yl)methyl)isoindolin-1-one]: the EC50 in experiment [1] (setting [5]) and in experiment [2] (setting [6]) was below 500 nM in each case. Further, the “Enzymatic Emax” value in experiment [1] is reported as “B (3≥B>2)”. The maximal fold induction in experiment [2] (setting [6]) was above 1.5.

`N#Cc1cccc(Cl)c1CC1c2ccccc2C(=O)N1Cc1ccc2[nH]c(=O)oc2c1` (centres unmarked) [Compound 190, 3-chloro-2-((3-oxo-2-((2-oxo-2,3-dihydrobenzo[d]oxazol-6-yl)methyl)isoindolin-1-yl)methyl)benzonitrile]: the EC50 in experiment [1] (setting [3]) is below 500 nM. The “Enzymatic Emax” value in experiment [1] was “B (3≥B>2)”. For the same molecule, in experiment [2] (setting [4]), the EC50 is below 500 nM and the maximal fold induction was above 1.5.

Regarding `CC1c2ccccc2C(=O)N1Cc1ccc2[nH]nnc2c1` (centres unmarked) [Compound 44, 2-((1H-benzo[d][1,2,3]triazol-5-yl)methyl)-3-methylisoindolin-1-one], in experiment [1] (setting [3]), the EC50 is at least 5000 nM. Besides, the “Enzymatic Emax” value in experiment [1] is “B (3≥B>2)”. Besides, in experiment [2] (setting [4]), the EC50 was 5000 to 50000 nM and the maximal fold induction lay within 1.2 to 1.5.

As to `Cc1ccc(C#N)c(CC2c3ccccc3C(=O)N2Cc2ccc3[nH]c(=O)oc3c2)c1` (centres unmarked) [Compound 164, 4-methyl-2-((3-oxo-2-((2-oxo-2,3-dihydrobenzo[d]oxazol-6-yl)methyl)isoindolin-1-yl)methyl)benzonitrile], the 50% effective concentration (EC50) in experiment [1] (setting [3]) was below 500 nM. Besides, in experiment [1], the “Enzymatic Emax” value is recorded as “B (3≥B>2)”. Also, in experiment [2] (setting [4]), the EC50 was below 500 nM and the maximal fold induction is above 1.5.

On to `N#CCC1c2ccccc2C(=O)N1Cc1ccc(O)cc1` (centres unmarked) [Compound 27, 2-(2-(4-hydroxybenzyl)-3-oxoisoindolin-1-yl)acetonitrile], for which, in experiment [1] (setting [3]), the concentration giving a half-maximal response (EC50) is at least 5000 nM. Moreover, the “Enzymatic Emax” value in experiment [1] is reported as “A (A>3)”. In experiment [2] (setting [4]), the EC50 is 5000 to 50000 nM and the maximal fold induction is above 1.5.

`Cn1ncc(Cl)c1CC1c2cc(Br)ccc2C(=O)N1CC1CC2(CNC(=O)O2)C1` (centres unmarked) [Compound 450, 2-((5-bromo-3-((4-chloro-1-methyl-1H-pyrazol-5-yl)methyl)-1-oxoisoindolin-2-yl)methyl)-5-oxa-7-azaspiro[3.4]octan-6-one]: in experiment [1] (setting [5]), the concentration giving a half-maximal response (EC50) lay in the range of 500 to 5000 nM. Besides, the “Enzymatic Emax” value in experiment [1] is given as “A (A>3)”. In experiment [2] (setting [6]), the EC50 is below 500 nM and the maximal fold induction was above 1.5.

As to `N#Cc1ccnc(C#N)c1CC1c2ccccc2C(=O)N1CC1CC2(CNC(=O)O2)C1` (centres unmarked) [Compound 446, 3-((3-oxo-2-((6-oxo-5-oxa-7-azaspiro[3.4]octan-2-yl)methyl)isoindolin-1-yl)methyl)pyridine-2,4-dicarbonitrile], the EC50 in experiment [1] (setting [5]) and in experiment [2] (setting [6]) was below 500 nM throughout. For the same molecule, in experiment [1], the “Enzymatic Emax” value was “B (3≥B>2)”. Moreover, the maximal fold induction in experiment [2] (setting [6]) was above 1.5.
